The test system of the assay is 997537-175-T-J1-PDC complex spheroid viability. Kind of assay: Anticancer human tumor 997537-175-T-J1-PDC patient-derived colon adenocarcinoma cell line growth inhibition [GQUAD]. Conditions: for viability, T/C: stronger effect = lower value. The source says: DNA G-quadruplex Stabilizer Agents in Combinations in Complex Spheroids
A high-throughput screen of multi-cell type tumor spheroids was designed to identify active combinations of DNA G-quadruplex stabilizer agents and targeted small molecules. Complex spheroids include a stromal component modeled by human endothelial cells (HUVEC) and fibroblasts modeled by human mesenchymal stem cells (MSCs). The concentration ranges selected for each drug and investigational agent were based upon clinically achievable concentrations if the clinical Cmax of the agent was known.
Compounds. The drugs and investigational agents: pidnarulex (CX-5461; NSC782164), APTO-253 (NSC789042), BRACO-19 (NSC847499), peposertib (NSC802822), ceralasertib (NSC780249), elimusertib (NSC800525), camonsertib (NSC841442), AZD-1390 (NSC803789), olaparib (NSC753686), talazoparib (NSC767125), ART-558 (NSC835418), sotorasib (NSC818433), MRTX-1133 (NSC836407), SN-38 (NSC673596), topotecan (NSC609699), etoposide (NSC141540), doxorubicin (NSC123127), gemcitabine (NSC613327), 5-fluorouracil (NSC19893), paclitaxel (NSC125973), vemurafenib (NSC761431), panobinostat (NSC761190), R-306465 (JNJ-16241199; NSC773264), adavosertib (NSC754352), TP-3654 (NSC805149), carboplatin (NSC241240), KSQ-4279 (NSC840948), and staurosporine (NSC755774) were obtained from the National Cancer Institute (NCI) Developmental Therapeutics Program Chemical Repository (34). The FDA-approved anticancer drug set is available from the NCI Developmental Therapeutics Program. […] The stock solutions were prepared in dimethyl sulfoxide (DMSO, Sigma-Aldrich, St. Louis, MO, cat. D2650) at 800-fold the tested concentration and stored at -70 degrees C prior to their use. All drugs and investigational agents were tested over a range starting from a high concentration at or near the clinical Cmax and decreasing in half-log increments. If the clinical Cmax for an agent had not been determined, the highest concentration tested was 10 microM.
2.3 Cell Culture. All cells were maintained in an incubator at 37 degrees C and 5% CO2 with 95% humidity. The PDC lines were cultured according to standard operating procedures established by the NCI PDMR. All PDCs were thawed and cultured in Matrigel-coated flasks prepared with a working solution of 1X Ham's F-12 nutrient mix, without supplementation (Invitrogen, cat. 11765054), 100 U/mL penicillin-streptomycin (Invitrogen, cat. 15140122), and 2.5% Matrigel (Corning Inc., cat. 354248) for the first three passages. The 857933-349-R-J2-PDC line was cultured in 6C/Colon 1B media, which includes advanced DMEM/F-12 (Thermo Fisher Scientific, cat. 12634028), 10 mM HEPES (Thermo Fisher Scientific, cat. 15630080), 1X GlutaMAX supplement (Thermo Fisher Scientific, cat. 35050061), 0.1 mg/mL primocin (InvivoGen, cat. ant-pm-2), 10% defined fetal bovine serum, heat inactivated (HyClone Laboratories Inc., cat. SH30070.03HI), 50% L-WRN conditioned media (ATCC, cat. CRL-3276), 1.25 mM N-Acetyl-L-cysteine (Sigma-Aldrich, cat. A9165), 10 mM nicotinamide (Sigma-Aldrich, cat. N0636), 1X B-27 supplement (Thermo Fisher Scientific, cat. 17504044), 1X N-2 supplement (Thermo Fisher Scientific, cat. 17502048), 10 microM Y-27632 dihydrochloride (Tocris Bioscience, cat. 1254), and 50 ng/mL human EGF recombinant protein (Thermo Fisher Scientific, cat. PHG0311). The 485176-168-R4-J1-PDC line was cultured in Panc media, which includes all 6C/Colon 1B media components plus 100 ng/mL human FGF-10 (Thermo Fisher Scientific, cat. 100-26), 500 nM SB-431542 (Selleckchem, cat. S1067), and gastrin (Tocris, cat. 3006).
[…]

[1] abbreviates: compound alone, run of 04/22/2024.
The mark [2] stands for this setting: curve of first compound, second compound 0.0316 µM.
[3] abbreviates: curve of first compound, second compound 0.1 µM.
Where [4] appears, read: curve of first compound, second compound 0.316 µM.
Where [5] appears, read: curve of first compound, second compound 1 µM.
[6] abbreviates: curve of first compound, second compound 3.16 µM.
Where [7] appears, read: curve of first compound, second compound 10 µM.
[8] abbreviates: second compound 0.0316 µM, first compound 0.0316 µM.
Where [9] appears, read: second compound 0.0316 µM, first compound 0.1 µM.
Setting [10] is: second compound 0.0316 µM, first compound 0.316 µM.
Setting [11] is: second compound 0.0316 µM, first compound 1 µM.
Where [12] appears, read: second compound 0.0316 µM, first compound 3.16 µM.
The mark [13] stands for this setting: second compound 0.0316 µM, first compound 10 µM.
The mark [14] stands for this setting: second compound 0.1 µM, first compound 0.0316 µM.
Where [15] appears, read: second compound 0.1 µM, first compound 0.1 µM.
The mark [16] stands for this setting: second compound 0.1 µM, first compound 0.316 µM.
Setting [17] is: second compound 0.1 µM, first compound 1 µM.
Setting [18] is: second compound 0.1 µM, first compound 3.16 µM.
[19] abbreviates: second compound 0.1 µM, first compound 10 µM.
Setting [20] is: second compound 0.316 µM, first compound 0.0316 µM.
Setting [21] is: second compound 0.316 µM, first compound 0.1 µM.
The mark [22] stands for this setting: second compound 0.316 µM, first compound 0.316 µM.
The mark [23] stands for this setting: second compound 0.316 µM, first compound 1 µM.
Where [24] appears, read: second compound 0.316 µM, first compound 3.16 µM.
Setting [25] is: second compound 0.316 µM, first compound 10 µM.
[26] abbreviates: second compound 1 µM, first compound 0.0316 µM.
Where [27] appears, read: second compound 1 µM, first compound 0.1 µM.
[28] abbreviates: second compound 1 µM, first compound 0.316 µM.
Where [29] appears, read: second compound 1 µM, first compound 1 µM.
Where [30] appears, read: second compound 1 µM, first compound 3.16 µM.
Setting [31] is: second compound 1 µM, first compound 10 µM.
Where [32] appears, read: second compound 3.16 µM, first compound 0.0316 µM.
Setting [33] is: second compound 3.16 µM, first compound 0.1 µM.
The mark [34] stands for this setting: second compound 3.16 µM, first compound 0.316 µM.
Setting [35] is: second compound 3.16 µM, first compound 1 µM.
Setting [36] is: second compound 3.16 µM, first compound 3.16 µM.
[37] abbreviates: second compound 3.16 µM, first compound 10 µM.
Setting [38] is: second compound 10 µM, first compound 0.0316 µM.
The mark [39] stands for this setting: second compound 10 µM, first compound 0.1 µM.
[40] abbreviates: second compound 10 µM, first compound 0.316 µM.
The mark [41] stands for this setting: second compound 10 µM, first compound 1 µM.
The mark [42] stands for this setting: second compound 10 µM, first compound 3.16 µM.
Setting [43] is: second compound 10 µM, first compound 10 µM.

The structures appear in SMILES notation. Several values for one entry are separate records, joined by “and”; a condition that tells them apart may be missing. Equal values may be shown once. Some results are limits rather than exact numbers.

The term viability, T/C denotes the result in the treated group divided by that in the control group, in per cent. For orientation: IC50 means the point on the concentration scale where inhibition reaches its midpoint.
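Further: spheroids exposed to the agents for 7 days.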

Turning to `Cc1[nH]c2ccc(F)cc2c1-c1nc2c3cccnc3c3ncccc3c2[nH]1`, the viability, T/C by setting is: (compound 0.1 µM) 95.2% [middle of 12 runs]; (compound 0.316 µM) 98.8% [middle of 12 runs]; (compound 3.16 µM) 89.3% [middle of 12 runs]. In addition, the half-maximal inhibitory concentration (IC50) was over 10 µM (compound alone, run of 04/16/2024) and over 10 µM under setting [1].
On to `CC1COCCN1c1cc(C2(S(C)(=N)=O)CC2)nc(-c2ccnc3[nH]ccc23)n1` (stereo not given) + Cc1cnc(CNC(=O)c2c(=O)c3ccc(N4CCCN(C)CC4)nc3n3c2sc2ccccc23)cn1, for which the IC50 reads like this: under setting [2], 3.67 µM; under setting [3], 8.64 µM; under setting [4], over 10 µM; under setting [5], over 10 µM; under setting [6], over 10 µM; under setting [7], over 10 µM. For the same molecule, the viability, T/C by setting is: under setting [8], 105%; under setting [9], 88.9%; under setting [10], 84.8%; under setting [11], 56.8%; under setting [12], 54.9%; under setting [13], 41.7%. For the same molecule, the viability, T/C under setting [14] was 91.4%; the viability, T/C under setting [15] was 90.4%; the viability, T/C under setting [16] is 83.9%; the viability, T/C under setting [17] was 65.9%; the viability, T/C under setting [18] was 72.3%; the viability, T/C under setting [19] is 45.2%. Also, the viability, T/C is, setting by setting: under setting [20], 89.5%; under setting [21], 92.8%; under setting [22], 80.6%; under setting [23], 60.3%; under setting [24], 55.4%; under setting [25], 53.4%. Also, the viability, T/C runs as follows: under setting [26], 86.7%; under setting [27], 82.5%; under setting [28], 69.6%; under setting [29], 65.8%; under setting [30], 84.7%; under setting [31], 83.7%. Further, the viability, T/C under setting [32] was 65.4%; the viability, T/C under setting [33] was 83.7%; the viability, T/C under setting [34] was 104%; the viability, T/C under setting [35] was 78.2%; the viability, T/C under setting [36] was 59.3%; the viability, T/C under setting [37] was 69%. Besides, the viability, T/C was 74.8% under setting [38]; 71.4% under setting [39]; 91.8% under setting [40]; 68.3% under setting [41]; 85.4% under setting [42]; 85.8% under setting [43].
Turning to `CN(C)c1ccc(Nc2c3ccc(NC(=O)CCN4CCCC4)cc3nc3cc(NC(=O)CCN4CCCC4)ccc23)cc1`, the viability, T/C (compound 0.316 µM) is 97.1% [middle of 12 runs]. The IC50 under setting [1] was over 10 µM.
Take `CC[C@@]1(O)C(=O)OCc2c1cc1n(c2=O)Cc2cc3c(CN(C)C)c(O)ccc3nc2-1`: the viability, T/C is 111% (2×) and 97.1% (compound 0.000999 µM); 69.8% and 102% and 104% (compound 0.00316 µM); 90.1% and 96.7% and 105% (compound 0.00999 µM); 80.1% and 87.1% and 83.8% (compound 0.0316 µM); 71.2% and 79.7% and 72.6% (compound 0.0999 µM); 44.4% and 62.8% and 50.7% (compound 0.316 µM). For the same molecule, where the note is “curve of compound”, the IC50 was 0.276 µM and > 0.316 µM.
As for `CC1COCCN1c1cc(-c2ccnn2C)c2ccnc(-c3ccn[nH]3)c2n1` (stereo not given) + CN(C)c1ccc(Nc2c3ccc(NC(=O)CCN4CCCC4)cc3nc3cc(NC(=O)CCN4CCCC4)ccc23)cc1, the IC50 by setting is: under setting [2], 0.8 µM; under setting [3], 2.46 µM; under setting [4], over 10 µM; under setting [5], over 10 µM; under setting [6], over 10 µM; under setting [7], 0.264 µM. In addition, the viability, T/C was 86.6% under setting [8]; 78.5% under setting [9]; 58.1% under setting [10]; 43.9% under setting [11]; 46.8% under setting [12]; 30.1% under setting [13]. Moreover, the viability, T/C under setting [14] is 95.8%; the viability, T/C under setting [15] is 81.9%; the viability, T/C under setting [16] was 69.5%; the viability, T/C under setting [17] is 56.6%; the viability, T/C under setting [18] is 40.1%; the viability, T/C under setting [19] is 52.9%. Also, the viability, T/C reads like this: under setting [20], 97.7%; under setting [21], 69.4%; under setting [22], 61.6%; under setting [23], 35.5%; under setting [24], 54.9%; under setting [25], 59.8%. Besides, the viability, T/C reads like this: under setting [26], 82.5%; under setting [27], 59.7%; under setting [28], 56.1%; under setting [29], 34%; under setting [30], 68.8%; under setting [31], 51%. In addition, the viability, T/C was 60.6% under setting [32]; 70.3% under setting [33]; 52.3% under setting [34]; 44.1% under setting [35]; 67.8% under setting [36]; 60.6% under setting [37]. Besides, the viability, T/C reads like this: under setting [38], 89.6%; under setting [39], 68.8%; under setting [40], 43.8%; under setting [41], 32.6%; under setting [42], 50%; under setting [43], 59.5%.
Take `C=CC(=O)N1CCN(c2nc(=O)n(-c3c(C)ccnc3C(C)C)c3nc(-c4c(O)cccc4F)c(F)cc23)C(C)C1` (stereo not given): the viability, T/C runs as follows: (compound 0.0316 µM) 72.9% and 96.6% and 86.9%; (compound 0.1 µM) 72.7% and 83.5% and 95.8%; (compound 0.316 µM) 86.5% and 87.9% and 93.8%; (compound 1 µM) 92.2% and 77.4% and 73%; (compound 3.16 µM) 95.7% and 79.1% and 71.7%; (compound 10 µM) 94.6% and 94.1% and 90%. Moreover, the IC50 (curve of compound) was over 10 µM.
